Reference: patent publication US20100221709A1, “METHODS FOR IDENTIFYING AGENTS THAT MODULATE APOPTOSIS IN CELLS THAT OVER-EXPRESS A BCL-2 FAMILY MEMBER PROTEIN” (priority 2005, published 2010)

Legend:
U266 myeloma cells = assay: [3H]-thymidine incorporation; assay type: cell-based, human
Method: (§1) RPMI-8226 cells were grown in 96 well plates for 24 h prior to addition of 2-methoxy antimycins. Antimycin stocks in dimethyl sulfoxide (DMSO) were serially diluted in RPMI. Cells were incubated for 48 h with compounds at final compound concentrations ranging from 10^−4 to 10^−8 M. MTT cell proliferation assays were performed in quadruplicate and percent growth inhibitions were calculated as (A570 (control cells)-A570 (treated cells))/A570 (control cells). GI50 was extrapolated from semi-log plots of the dose response for each compound. […] After 72 h drug exposures, 1 μCi/ml [^3H]-thymidine was added to wells. Cells were incubated for an additional 24 h, and then transferred to GF/C filter plates (Packard) using a plate washer. Filters were dried, added to scintillant, and counted in a TopCount® scintillation counter (Packard). Drug response is expressed as the percentage of vehicle-treated controls, and each value shown is the average of three determinations.

RPMI-8226 myeloma cells = assay: [3H]-thymidine incorporation; assay type: cell-based, human
Method: as §1

NCI-H929 myeloma cells = assay: [3H]-thymidine incorporation; assay type: cell-based, human
Method: as §1

[1] = tested on: TABX2S cells (over-expressing Bcl-xL); assay: in vitro
Description: (§2) Briefly, a DNA fragment encoding the full-length mouse Bcl-xL cDNA was isolated from the plasmid pBS-BCL-xL (Tzung et al., Am. J. Path. 150:1985-1995 (1997), incorporated herein by reference in its entirety) by digestion with the restriction endonuclease EcoRI. This EcoRI fragment was cloned into the EcoRI site of the mammalian expression vector pSFFV (Fuhlbrigge et al., Proc. Nat. Acad. Sci. USA 85:5649-5653 (1988)) in both sense and antisense orientations, to form expression plasmids pSFFV-Bc/-xL-WT(sense) or pSFFV-Bc/-xL(antisense), respectively. The tumorigenic murine hepatocyte cell line TAMH was transfected by lipofection (Lipofectamine, Life Technologies, Rockville, Md., according to the manufacturer's recommendations) with the plasmids pSFFV-neo (the control), pSFFV-Bc/-xL-WT(sense) or pSFFV-Bc/-xL(antisense). Characterization of and culture conditions for the cell lines have been previously published (Wu et al., Proc. Nat. Acad. Sci. USA 91:674-78 (1994); Wu et al., Cancer Res. 54:5964-5973 (1994)). Transfectants were selected for the acquisition of neomycin resistance by growing cells in the presence of 750 μg/ml of G418. Bulk transfectants were cloned by limiting dilution and individual clones were screened by immunoblot analysis to determine the level of Bcl-xL, protein expression as described below.
(§3) Selected transfectants were then tested for whole cell sensitivity to several apoptotic agents. Transfected cells were cultured to reach approximately 80% confluency prior to plating an equal number of cells from selected clones on 12-well tissue culture plates. The transplanted cells were treated with the following apoptotic agents: 5 μM doxorubicin for 48 hours; 5 μM cisplatin for 48 hours; or with 200 U/ml tumor necrosis factor (TNF) plus 1 μg/ml actinomycin D for 18 hours. Cell viability was determined by trypan blue dye exclusion. The percentage of viable cells was calculated by the number of viable cells (treated with a particular apoptogenic agent) divided by the number in the control group (untreated).
TABX2S cells and TABX1A cells were also examined for the effects of various mitochondrial inhibitors. […] Azide was diluted from an aqueous stock solution.

[2] = tested on: TABX1A cells (Bcl-xL antisense); assay: Cell viability by trypan blue dye exclusion; conditions: 2 μg/ml, without fructose, six hours
Description: as §2
as §3, with “(untreated). […]” for “(untreated).”

For antimycin A, the “50% growth inhibition (GI50)” value (U266 myeloma cells) was 0.05 µg/mL, the “50% growth inhibition (GI50)” value (RPMI-8226 myeloma cells) was 0.1 µg/mL and the “50% growth inhibition (GI50)” value (NCI-H929 myeloma cells) was 0.2 µg/mL. The “time until cell death readily apparent” value [1] was at most 2 h and the survival [2] was 87%.
